From patent publication US8609644B2, “Amino derivatives of androstanes and androstenes as medicaments for cardiovascular disorders” (priority 2006, dated 2013)
Counter-ions that a name gives are not always drawn. Like-named read-outs stand apart in the source and are kept apart here.

Columns and labels:
[1] = target: Na+, K+-ATPase (Canis lupus familiaris, UniProt P50997); test: biochemical; set-up: species or system dog
[2] = tested on: hypertensive ouabain-sensitive rats (os rats); test: Systolic blood pressure fall in hypertensive ouabain-sensitive rats (OS rats); type: in vivo, rat; details: 10 μg/kg/day by mouth for four weeks; for HR / SBP: measured 6 hours after the treatment; for SBP: tail-cuff
Protocol: The ability of these compounds to lower blood pressure was tested by using an animal model with induced hypertension, in particular, rats made hypertensive by chronic infusion of ouabain, according to Ferrari P., et al. J. Pharm. Exp. Ther. 1998, 285, 83-94.
The procedure adopted to test the antihypertensive activity of the compounds on the above mentioned model was the following: systolic blood pressure (SBP) and heart rate (HR) were measured by an indirect tail-cuff method. The blood pressure lowering effect was measured in hypertensive ouabain-sensitive rats. The compound, suspended in Methocel 0.5% (w/v), was administered daily at the dose of 10 μg/kg/day by mouth for four weeks. SBP and HR were measured weekly 6 hours after the treatment. The comparison are ouabain sensitive rats (OS rats) and non hypertensive rats (control), both treated only with Methocel 0.5% (w/v). As shown in the following Table 4, treatment with a compound of the present invention lowers the blood pressure of OS rats (170 mm Hg) to almost the level of control rats (150 mm Hg).

[3] = tested on: fresh rat hepatocytes; test: Metabolism in fresh rat hepatocytes; details: fresh rat hepatocytes; test item nominal concentration 45 μM
[4] = tested on: anesthetized guinea-pig; test: Inotropic effect and lethal dose, slow intravenous infusion (over 90 minutes) in anesthetized guinea-pig; details: for % decrease from Emax after 20 min from the end of the infusion: duration of the inotropic effect; for Maximum dose infused: maximum dose infused in the survived animals
[5] = read-out: Na+, K+-ATPase Inhibition IC50
[6] = slow i.v. infusion over 90 minutes

SMILES	IC50 [1, 5] [µM]	HR % beats/min [2]	SBP - % (fall vs OS rats) [2] [%]	SBP - mm Hg (fall vs OS rats) [2] [mm Hg]	HR [2] [beats/min.]	SBP [2] [mm Hg]	% of compound metabolized after 60 minutes [3] [%]	Lethal dose/ED80 (safety ratio) ([4]; calculated in the died animals)	% decrease from Emax after 20 min from the end of the infusion [4] [%]	Maximum dose infused [4] [µmol/kg]	Emax % increase in +dP/dTmax ([4]; maximum increase in contractile force, slow i.v. infusion over 90 minutes) [%]	Dead/treated [4, 6]	ED80 (inotropic potency, dose increasing +dP/dTmax by 80%) [4, 6] [µmol/kg]	EDmax (dose inducing maximum positive inotropic effect) [4, 6] [µmol/kg]	IC50 ([1]; dog kidney enzyme, read-out: Na+, K+-ATPase Inhibition IC50) [µM]	IC50 ([1]; Na+, K+-ATPase Inhibition IC50) [µM]	ED80 ([4]; Cavia porcellus, iv, 1.5 h, read-out: ED80 (inotropic potency, dose increasing +dP/dTmax by 80%)) [µmol/kg]	ED (max) ([4]; Cavia porcellus, iv, 1.5 h, read-out: EDmax (dose inducing maximum positive inotropic effect)) [µmol/kg]	Emax ([4]; Cavia porcellus, iv, 1.5 h, read-out: Emax % increase in +dP/dTmax) [%]
COC1CC2CC(=NOCCN)CCC2(C)C2CCC3(C)C(=O)CCC3C12 (mixture of isomers) [I-ee, (E,Z) 3-(2-Aminoethoxyimino)-7α-methoxyandrostane-17-one hemifumarate]	14	+5.1%	11.0	19.0	381	151.0	22												
C[C@]12CCC(=NOCCN)CC1[C@@H](NC=O)C[C@@H]1[C@@H]2CC[C@]2(C)C(=O)CC[C@@H]12.O=C(O)/C=C/C(=O)O (stereo partly drawn) [I-be, (E,Z) 3-(2-Aminoethoxyimino)-6α-formamidoandrostan-17-one fumarate]	0.16						16	32.8	37	50.4	174	1/5	1.99	27.4					
CON=C1CC2CC(=NOCCN)CCC2(C)C2CCC3(C)C(=O)CCC3C12 (mixture of isomers) [I-bt, (E,Z)-3-(2-Aminoethoxyimino)-7-(E)-methoxyiminoandrostan-17-one fumarate]		0%	8.3	14.2	368	155.8									12				
C=C1C[C@@H]2[C@H](CC[C@]3(C)C(=O)CC[C@@H]23)[C@@]2(C)CC/C(=N\OCCN)CC12.Cl (stereo partly drawn) [I-ai, (E) 3-(2-Aminoethoxyimino)-6-methyleneandrostan-17-one hydrochloride]							27		100	3.2		0/5				0.084	1.2	2.99	235
